Laboratory results from patent publication US8940739B2, “Compound of a reverse-turn mimetic and a production method and use therefor” (JW Pharmaceutical Corporation, priority 2010, dated 2015).

Experiments:
[1] = target: cDNA-expressed human hepatic CYP3A4 (Homo sapiens (Human), UniProt P08684); assay: Measurement of CYP (IC50 of P450 CYP3A4), BFC substrate; format: in vitro ADME; conditions: 20 minutes
Summary of the method: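 cDNA-expressed human CYP3A4 supersomes in 0.1M potassium phosphate pH 7.4 with 8.3 mM MgCl2, 1.67 mM EDTA and 0.25 mM NADPH; compounds in acetonitrile (<1% final). Reaction started with 30 µM BFC, 20 min at 37. 7-Hydroxy-4-trifluoromethyl-coumarin read by fluorescence (ex 409/em 530 nm).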

[2] = test system: MV-4-11 (human, Acute Myeloid Leukemia cell line) cells; assay: Cell growth inhibition assay, GI50 of MV-4-11; format: cell-based; conditions: Homo sapiens, MV4-11, 72 h, MV-4-11 cells
Summary of the method: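 MV-4-11 AML cells (5×10^4/well, IMDM with 10% FBS) treated in duplicate with serially diluted compounds for 72 hours at 37 °C. Viability read as absorbance at 490 nm after CellTiter 96 Aqueous One (MTS) addition; GI50 calculated from the concentration-response.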

Sequence of cDNA-expressed human hepatic CYP3A4 (P08684 whole entry): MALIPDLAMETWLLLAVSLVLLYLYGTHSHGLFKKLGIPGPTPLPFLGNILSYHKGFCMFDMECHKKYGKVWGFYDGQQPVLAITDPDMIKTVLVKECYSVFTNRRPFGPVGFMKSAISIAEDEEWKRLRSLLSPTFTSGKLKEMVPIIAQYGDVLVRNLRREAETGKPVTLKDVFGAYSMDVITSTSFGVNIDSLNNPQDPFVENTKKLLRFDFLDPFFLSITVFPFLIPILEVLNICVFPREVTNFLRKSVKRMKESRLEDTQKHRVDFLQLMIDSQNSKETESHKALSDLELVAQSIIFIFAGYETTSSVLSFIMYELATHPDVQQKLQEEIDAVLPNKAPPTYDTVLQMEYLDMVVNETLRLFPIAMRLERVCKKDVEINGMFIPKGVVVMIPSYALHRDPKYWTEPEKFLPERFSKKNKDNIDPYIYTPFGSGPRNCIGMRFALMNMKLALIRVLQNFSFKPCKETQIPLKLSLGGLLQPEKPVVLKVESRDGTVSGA

Compound | IC50 [1] [nM] | GI50 [2] [nM]
C=CCN1CC(=O)N2[C@@H](Cc3ccc(O)cc3)C(=O)N(Cc3cccc4c(C(=O)N5CCN(C)CC5)cn(C)c34)C[C@@H]2N1C(=O)NCc1ccccc1 [Compound E-4] | 12200 | 11.2
C=CCN1CC(=O)N2[C@@H](Cc3ccc(O)cc3)C(=O)N(Cc3cccc4c(-c5ccc(C(=O)Nc6ccc(N)cc6)cc5)cn(C)c34)C[C@@H]2N1C(=O)NCc1ccccc1 [Compound D-18] | 2420 | 1.2
C=CCN1CC(=O)N2[C@@H](Cc3ccc(O)cc3)C(=O)N(Cc3cccc4c(C(=O)N5CCC(C(=O)OCC)CC5)cn(C)c34)C[C@@H]2N1C(=O)NCc1ccccc1 [Compound E-53] | 3860 | 1.9
C=CCN1CC(=O)N2[C@@H](Cc3ccc(O)cc3)C(=O)N(Cc3cccc4c(-c5ccc(NC(=O)c6ccc(N)cc6)cc5)cn(C)c34)C[C@@H]2N1C(=O)NCc1ccccc1 [Compound D-50] | > 25000 | 2
C=CCN1CC(=O)N2[C@@H](Cc3ccc(O)cc3)C(=O)N(Cc3cccc4c(-c5ccc(NC(=O)c6ccccc6)cc5)cn(C)c34)C[C@@H]2N1C(=O)NCc1ccccc1 [Compound D-48] | > 25000 | 1.9
C=CCN1CC(=O)N2[C@@H](Cc3ccc(O)cc3)C(=O)N(Cc3cccc4c(C(=O)N5CC(N6CCC(OC)CC6)C5)cn(C)c34)C[C@@H]2N1C(=O)NCc1ccccc1 [Compound E-73] | 11800 | 19.3
C=CCN1CC(=O)N2[C@@H](Cc3ccc(O)cc3)C(=O)N(Cc3cccc4c(C(=O)N5CCN(CCOC)CC5)cn(C)c34)C[C@@H]2N1C(=O)NCc1ccccc1 [Compound E-10] | 9120 | 10.8
C=CCN1CC(=O)N2[C@@H](Cc3ccc(O)cc3)C(=O)N(Cc3cccc4c(-c5ccc(C(=O)N6CCSCC6)cc5)cn(C)c34)C[C@@H]2N1C(=O)NCc1ccccc1 [Compound D-5] | 1760 | 2.2
C=CCN1CC(=O)N2[C@@H](Cc3ccc(O)cc3)C(=O)N(Cc3cccc4c(C(=O)N5CCOCC5)cn(C)c34)C[C@@H]2N1C(=O)NCc1ccccc1 [Compound E-3] | 3900 | 18.4
C=CCN1CC(=O)N2[C@@H](Cc3ccc(O)cc3)C(=O)N(Cc3cccc4c(-c5ccc(C(=O)Nc6cccc(O)c6)cc5)cn(C)c34)C[C@@H]2N1C(=O)NCc1ccccc1 [Compound D-16] | 8070 | 15.6
C=CCN1CC(=O)N2[C@@H](Cc3ccc(O)cc3)C(=O)N(Cc3cccc4c(-c5ccc(C(=O)Nc6ccc(N7CCN(C)CC7)cc6)cc5)cn(C)c34)C[C@@H]2N1C(=O)NCc1ccccc1 [Compound D-11] | 7040 | 1.8
C=CCN1CC(=O)N2[C@@H](Cc3ccc(O)cc3)C(=O)N(Cc3cccc4c(-c5ccc(NC(=O)N6CCOCC6)cc5)cn(C)c34)C[C@@H]2N1C(=O)NCc1ccccc1 [Compound D-59] | 2190 | 1.2
C=CCN1CC(=O)N2[C@@H](Cc3ccc(O)cc3)C(=O)N(Cc3cccc4c(-c5ccc(NC(=O)Nc6cnccn6)cc5)cn(C)c34)C[C@@H]2N1C(=O)NCc1ccccc1 [Compound D-83] | 4610 | 13.8
C=CCN1CC(=O)N2[C@@H](Cc3ccc(O)cc3)C(=O)N(Cc3cccc4c(-c5ccc(NC(=O)c6ccc(OC)cc6)cc5)cn(C)c34)C[C@@H]2N1C(=O)NCc1ccccc1 [Compound D-49] | > 25000 | 10

Further lines, results first:

IC50 [1] [nM] | GI50 [2] [nM] | Compound
13000 | 9 | C=CCN1CC(=O)N2[C@@H](Cc3ccc(O)cc3)C(=O)N(Cc3cccc4c(C(=O)Nc5ccc(OCCCN(C)C)nc5)cn(C)c34)C[C@@H]2N1C(=O)NCc1ccccc1 [Compound G-13]
3450 | 1.5 | C=CCN1CC(=O)N2[C@@H](Cc3ccc(O)cc3)C(=O)N(Cc3cccc4c(C(=O)Nc5ccc(N(C)CCO)nc5)cn(C)c34)C[C@@H]2N1C(=O)NCc1ccccc1 [Compound G-18]
9330 | 17.8 | C=CCN1CC(=O)N2[C@@H](Cc3ccc(O)cc3)C(=O)N(Cc3cccc4c(-c5ccc(C#N)cc5)cn(C)c34)C[C@@H]2N1C(=O)NCc1ccccc1 [Compound H-2]
9650 | 2.5 | C=CCN1CC(=O)N2[C@@H](Cc3ccc(O)cc3)C(=O)N(Cc3cccc4c(C(=O)NC5CCN(C(=O)c6ccc(N7CCN(C)CC7)cc6)CC5)cn(C)c34)C[C@@H]2N1C(=O)NCc1ccccc1 [Compound F-67]
7670 | 2.7 | C=CCN1CC(=O)N2[C@@H](Cc3ccc(O)cc3)C(=O)N(Cc3cccc4c(C(=O)Nc5ccc(OCCCN6CCCCC6)nc5)cn(C)c34)C[C@@H]2N1C(=O)NCc1ccccc1 [Compound G-31]
4190 | 1.3 | C=CCN1CC(=O)N2C(Cc3ccc(O)cc3)C(=O)N(Cc3cccc4c(C(=O)Nc5ccc(N6CCN(C(C)(C)C)CC6)nc5)cn(C)c34)CC2N1C(=O)NCc1ccccc1 (centres unmarked) [Compound G-48]
10000 | 2.2 | C=CCN1CC(=O)N2C(CN(Cc3cccc4c(-c5ccc(S(C)(=O)=O)cc5)cn(C)c34)C(=O)[C@@H]2Cc2ccc(O)cc2)N1C(=O)NCc1ccccc1 (some centres unmarked) [Compound H-3]
7400 | 1.7 | C=CCN1CC(=O)N2C(CN(Cc3cccc4c(C(=O)Nc5ccc(CCO)cc5)cn(C)c34)C(=O)[C@@H]2Cc2ccc(O)cc2)N1C(=O)NCc1ccccc1 (some centres unmarked) [Compound G-10]
3680 | 16 | C=CCN1CC(=O)N2[C@@H](Cc3ccc(O)cc3)C(=O)N(Cc3cccc4c(C(=O)N(C)CCCO)cn(C)c34)C[C@@H]2N1C(=O)NCc1ccccc1 [Compound F-5]
7620 | 1.8 | C=CCN1CC(=O)N2[C@@H](Cc3ccc(O)cc3)C(=O)N(Cc3cccc4c(C(=O)Nc5ccc(OCCOC)nc5)cn(C)c34)C[C@@H]2N1C(=O)NCc1ccccc1 [Compound G-11]
6150 | 17.5 | C=CCN1CC(=O)N2[C@@H](Cc3ccc(O)cc3)C(=O)N(Cc3cccc4c(C(=O)NC5CCN(C(=O)c6ccc(N(C)C)cc6)CC5)cn(C)c34)C[C@@H]2N1C(=O)NCc1ccccc1 [Compound F-66]
6750 | 1.2 | C=CCN1CC(=O)N2[C@@H](Cc3ccc(O)cc3)C(=O)N(Cc3cccc4c(C(=O)Nc5ccc(N(C)C)nc5)cn(C)c34)C[C@@H]2N1C(=O)NCc1ccccc1 [Compound G-15]
2510 | 7.6 | C=CCN1CC(=O)N2[C@@H](Cc3ccc(O)cc3)C(=O)N(Cc3cccc4c(C(=O)N(C)CCO)cn(C)c34)C[C@@H]2N1C(=O)NCc1ccccc1 [Compound F-3]
2530 | 15.4 | C=CCN1CC(=O)N2[C@@H](Cc3ccc(O)cc3)C(=O)N(Cc3cccc4c(C(=O)N(C)CC5(CO)CC5)cn(C)c34)C[C@@H]2N1C(=O)NCc1ccccc1 [Compound F-9]
2010 | 15.1 | C=CCN1CC(=O)N2[C@@H](Cc3ccc(O)cc3)C(=O)N(Cc3cccc4c(C(=O)NCCCCOC)cn(C)c34)C[C@@H]2N1C(=O)NCc1ccccc1 [Compound F-10]
6750 | 1.3 | C=CCN1CC(=O)N2[C@@H](Cc3ccc(O)cc3)C(=O)N(Cc3cccc4c(C(=O)Nc5ccc(NCCN(C)C)nc5)cn(C)c34)C[C@@H]2N1C(=O)NCc1ccccc1 [Compound G-23]
4600 | 1.3 | C=CCN1CC(=O)N2C(CN(Cc3cccc4c(C(=O)Nc5ccc(N6CCC7CCCN7C6)nc5)cn(C)c34)C(=O)[C@@H]2Cc2ccc(O)cc2)N1C(=O)NCc1ccccc1 (some centres unmarked) [Compound G-66]
